Test results reported in patent publication US20260008760A1, “DIPEPTIDYL PEPTIDASE 1 INHIBITORS AND USES THEREOF” (Insmed Incorporated, priority 2024, published 2026).
pIC50: −log10 of the molar value.

What was measured:
human DPP1 enzyme [1] = biological target: T1, human DPP1 enzyme (Homo sapiens, UniProt P53634); test: Human DPP1 Enzyme Single-Point Percent Inhibition Testing (HL-60 lysate); format: biochemical; parameters: A crude lysate of HL-60 cells (ATCC; Manassas, VA) was used as a source of human DPP1 enzyme; host or cells: HL-60 cells (crude lysate); details: final compound concentration of 10 nM, 400 μM H-Gly-Arg-AMC, n = 1
Description: Example 98. Human DPP1 Enzyme Single-Point Percent Inhibition Testing
A crude lysate of HL-60 cells (ATCC; Manassas, VA) was used as a source of human DPP1 enzyme in the assay. Lysate was prepared in 1% Triton X-100 in PBS at a concentration of 20,000 live cells per μL of lysis buffer and was centrifuged at 16,000 rcf for 10 minutes at 4° C., after which supernatant was collected and flash-frozen in liquid nitrogen. Test articles were applied to human DPP1 enzyme in Assay Buffer (25 mM MES pH 6.0, 50 mM NaCl, 5 mM DTT) in a total reaction volume of 125 μL. 25 μL of compound diluted to 50 nM in Assay Buffer plus 5% DMSO was first added to 50 μL of HL-60 lysate diluted to contain a DPP1 enzyme concentration of roughly 1 ng/μL and allowed to pre-incubate for 10 minutes at 37° C. after which 50 μL of 1000 μM H-Gly-Arg-AMC substrate (Bachem; St. Torrance, CA) was added, giving final compound concentration of 10 nM, a final substrate concentration of 400 μM and a final DMSO concentration of 1%. Substrate cleavage was measured for 90 minutes at 37° C., with fluorescence at Excitation/Emission 350/450 nm measured every 5 minutes. DPP1 concentration was interpolated based on its activity relative to a standard curve of activated human recombinant DPP1 enzyme. Percent inhibition at 10 nM was calculated for each test article based on remaining DPP1 activity compared to enzyme activity in wells that received only vehicle control.
Target sequence in this assay (P53634 25-463): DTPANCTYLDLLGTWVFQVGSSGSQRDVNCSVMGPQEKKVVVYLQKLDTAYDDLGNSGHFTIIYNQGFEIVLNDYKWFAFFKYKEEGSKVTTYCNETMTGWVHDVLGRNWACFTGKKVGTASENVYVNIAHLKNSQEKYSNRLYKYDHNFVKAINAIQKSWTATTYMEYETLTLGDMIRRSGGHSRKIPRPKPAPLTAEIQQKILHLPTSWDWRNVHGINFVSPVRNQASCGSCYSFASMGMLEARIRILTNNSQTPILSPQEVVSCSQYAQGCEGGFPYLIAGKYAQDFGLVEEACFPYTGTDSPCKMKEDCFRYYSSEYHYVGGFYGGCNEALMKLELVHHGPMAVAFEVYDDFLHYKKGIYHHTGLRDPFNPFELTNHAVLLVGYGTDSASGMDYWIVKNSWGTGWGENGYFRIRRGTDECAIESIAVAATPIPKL

DPP1 in HL-60 cells [2] = biological target: T2, DPP1 in HL-60 cells (Homo sapiens, UniProt P53634); test: DPP1 Cell Single-Point Percent Inhibition Testing; format: cell-based; parameters: host or cells: HL-60 cells; details: final compound concentration 5 nM, n = 1
Description: Example 100. DPP1 Cell Single-Point Percent Inhibition Testing
HL-60 cells (ATCC; Manassas, VA) were maintained in RPMI-1640 supplemented with 20% heat-inactivated FBS and 1× Antibiotic Antimycotic (Cytiva; Marlborough, MA). Media was changed every three to four days and cells were not allowed to exceed 1×10^6 cells per mL. Prior to assay, cells were collected by centrifugation at 500 rcf for 3 minutes, resuspended in RPMI (with no additional supplements) and counted. Cells were diluted in RPMI to a concentration of 5×10^5 live cells per mL and transferred to black 96-well plates for assay, 60 μL per well. Test articles were diluted to 25 nM in RPMI plus 0.5% DMSO, and 20 μL was added to each assay well. Compound was allowed to pre-incubate with cells with gentle shaking at 100 rpm for 60 minutes at 37° C. in a cell culture incubator maintained at 5% CO2, after which 20 μL of 500 μM H-Gly-Phe-AFC cell-permeable substrate (MP Biomedicals; Solon, OH) in RPMI was added to each well, giving final compound concentration of 5 nM, a final substrate concentration of 100 μM and a final DMSO concentration of 0.1%. Plates were returned to the incubator with shaking at 100 rpm for 30 minutes, after which fluorescence was measured at Excitation/Emission 400/505 nm. Percent Inhibition was calculated from RFU values by first subtracting background values (wells in which RPMI was substituted for cells) from each well, and then subtracting background-subtracted RFU derived from wells that received a final concentration of 10 μM brensocatib. This value represents the non-specific substrate cleavage from the HL-60 cells, and the remaining RFU should theoretically be solely the contribution of DPP1 enzyme activity. The final percent inhibition value was calculated for each test article based on remaining RFU compared to RFU from wells that received only vehicle control.

DPP1 in HL-60 cells [3] = biological target: T2, DPP1 in HL-60 cells; test: DPP1 Cell IC50 assay; format: cell-based; parameters: host or cells: HL-60 cells; details: 60 min pre-incubation, H-Gly-Phe-AFC substrate, average of n runs, read-out: Avg. IC50 (DPP1 Cell IC50 value ranges)
Method in brief: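 HL-60 cells in PBS (5×10^5 live cells per mL) pre-incubated with compound (0.5% DMSO) 60 min at 37° C, 5% CO2, then H-Gly-Phe-AFC substrate (500 μM stock) added for 30 min. Fluorescence at 400/505 nm; % inhibition vs vehicle wells, IC50 from four-parameter logistic fit.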

human DPP1 enzyme [4] = biological target: T1, human DPP1 enzyme; test: Human DPP1 Enzyme IC50 Assay; format: biochemical; parameters: was first proteolytically processed into its mature form using recombinant human cathepsin L; purchased R&D Systems; details: activated recombinant human DPP1, 400 μM H-Gly-Arg-AMC, 10 minutes pre-incubation at 37° C., pH 6.0; average of n runs; read-out: Avg. IC50 (Human DPP1 enzyme IC50 value ranges)
Method in brief: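 Recombinant human DPP1, pre-activated with cathepsin L (pH 4.5), was preincubated with compound 10 min at 37 °C in MES pH 6.0, 50 mM NaCl, 5 mM DTT, 1% DMSO. Cleavage of 400 μM (final) H-Gly-Arg-AMC followed by fluorescence (350/450 nm) over 90 min at 37 °C; IC50 from four-parameter logistic fit versus no-compound control.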
Target sequence in this assay (P53634 25-134 limits assumed): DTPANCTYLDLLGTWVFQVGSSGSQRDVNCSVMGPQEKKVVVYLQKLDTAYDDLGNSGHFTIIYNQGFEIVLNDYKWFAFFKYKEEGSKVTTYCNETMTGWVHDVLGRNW
Target sequence in this assay (P53634 231-394 limits assumed): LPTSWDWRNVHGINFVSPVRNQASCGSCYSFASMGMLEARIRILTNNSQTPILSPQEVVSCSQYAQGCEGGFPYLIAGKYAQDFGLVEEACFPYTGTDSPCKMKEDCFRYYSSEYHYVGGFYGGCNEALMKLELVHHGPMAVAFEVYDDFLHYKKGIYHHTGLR
Target sequence in this assay (P53634 395-463 limits assumed): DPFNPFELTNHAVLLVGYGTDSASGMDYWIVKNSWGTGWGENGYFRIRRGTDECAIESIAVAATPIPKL

T2 sequence (P53634 25-463): as the sequence (P53634 25-463) above

| inhibition at 0.01 µM (human DPP1 enzyme [1]) | inhibition at 0.005 µM (DPP1 in HL-60 cells [2]) | pIC50 (DPP1 in HL-60 cells [3]) | pIC50 (human DPP1 enzyme [4]) | Compound |
| --- | --- | --- | --- | --- |
| ≥ 66.7% | ≤ 76.5% |  |  | CO[C@H]1CCO[C@H](C(=O)N[C@H](C#N)Cc2ccc(-c3ccc4cnn(C5CCN(C)CC5)c4c3)cc2F)CNC1 [Compound H16] |
| 40 to 66.7% | ≤ 76.5% |  |  | CO[C@H]1CCO[C@H](C(=O)N[C@H](C#N)Cc2ccc(-c3ccc4cnn(C5CCN(C)CC5)c4c3)cc2)CNC1 [Compound H15] |
| ≥ 66.7% | ≤ 76.5% |  |  | C[C@@H]1NC[C@@H](C(=O)N[C@H](C#N)Cc2ccc(-c3ccc4nnn(C)c4c3)cc2)OC[C@H]1O [Compound H24] |
| ≥ 66.7% | ≤ 76.5% |  |  | CO[C@@H]1CCNC[C@@H](C(=O)N[C@H](C#N)Cc2ccc(-c3ccc4cnn(C5CCN(C)CC5)c4c3)cc2F)OC1 [Compound H4] |
| ≥ 66.7% | ≤ 76.5% |  |  | CO[C@@H]1CCNC[C@@H](C(=O)N[C@H](C#N)Cc2ccc(-c3ccc4nnn(C)c4c3)cc2F)OC1 [Compound H8] |
| ≥ 66.7% | ≤ 76.5% |  |  | CO[C@@H]1CCNC[C@@H](C(=O)N[C@H](C#N)Cc2ccc(-c3ccc4cnn(C5CCN(C)CC5)c4c3)cc2)OC1 [Compound H3] |

Second part, the compound before the results:

| Compound | inhibition at 0.01 µM (human DPP1 enzyme [1]) | inhibition at 0.005 µM (DPP1 in HL-60 cells [2]) | pIC50 (DPP1 in HL-60 cells [3]) | pIC50 (human DPP1 enzyme [4]) |
| --- | --- | --- | --- | --- |
| CO[C@@H]1CCNC[C@@H](C(=O)N[C@H](C#N)Cc2ccc(-c3ccc(S(=O)(=O)N4CCC4)cc3)cc2)OC1 [Compound F16] | ≥ 66.7% | ≤ 76.5% |  |  |
| CO[C@@H]1CCNC[C@@H](C(=O)N[C@H](C#N)Cc2ccc(-c3ccc4c(c3)C3(CCN(C)C3)OC4=O)cc2F)OC1 (some centres unmarked) [Compound F14] | ≥ 66.7% | ≤ 76.5% |  |  |
| C[C@@H]1NC[C@@H](C(=O)NC(C#N)Cc2cc3c(cc2F)-c2cc4c(cc2CO3)oc(=O)n4C)OC[C@@H]1O (some centres unmarked) [Compound C22] | ≥ 66.7% | ≤ 76.5% |  |  |
| CCN1C(=O)Cc2ccc(-c3ccc(C[C@@H](C#N)NC(=O)[C@@H]4CNCC(OC)CO4)cc3)cc21 (some centres unmarked) [Compound G3] | ≥ 66.7% | 76.5 to 93.9% |  |  |
| CO[C@H]1CCO[C@H](C(=O)N[C@H](C#N)Cc2ccc(-c3cc4c(C)nc(C)c(C)n4c3)cc2)CNC1 [Compound A129] | 40 to 66.7% | 76.5 to 93.9% |  |  |
| CO[C@@H]1CCNC[C@@H](C(=O)N[C@H](C#N)Cc2ccc(-c3ccc4c(c3)C3(CCN(C5COC5)CC3)OC4)cc2)OC1 [Compound F9] | ≥ 66.7% | ≤ 76.5% |  |  |
| CO[C@H]1CCO[C@H](C(=O)N[C@H](C#N)Cc2ccc(-c3ccc4c(n3)CCCN4)cc2)CNC1 [Compound A93] | ≤ 40% | ≤ 76.5% |  |  |
| Cc1cn2cc(-c3ccc(C[C@@H](C#N)NC(=O)[C@@H]4CNCCCO4)cc3)cc2c(C)n1 [Compound A116] | ≤ 40% | ≤ 76.5% |  |  |
| CO[C@H]1CCO[C@H](C(=O)N[C@H](C#N)Cc2ccc(-c3ccc4c(c3)C3(CCN(C)C3)OC4=O)cc2F)CNC1 (some centres unmarked) [Compound F27] | ≥ 66.7% | ≤ 76.5% |  |  |
| N#C[C@H](Cc1ccc(-c2cc3cnccn3c2)cc1)NC(=O)[C@@H]1CNCCCO1 [Compound A54] |  |  | < 8.60 | < 7.82 |
| CO[C@H]1CCO[C@H](C(=O)N[C@H](C#N)Cc2ccc(-c3cc4c(C)nc(C)cn4c3)cc2F)CNC1 [Compound A48, (2S,6S)—N-[(1S)-1-cyano-2-(4-{1,3-dimethylpyrrolo[1,2-a]pyrazin-7-yl}-2-fluorophenyl)ethyl]-6-methoxy-1,4-oxazocane-2-carboxamide] |  |  | 8.60 to 9.00 | 7.82 to 8.30 |
| CN1C(=O)CCc2cc(-c3ccc(C[C@@H](C#N)NC(=O)[C@@H]4CNCC[C@@H](F)CO4)cc3)ccc21 [Compound A149] |  |  | 8.60 to 9.00 | < 7.82 |
| Cn1c(=O)ccc2ncc(-c3ccc(C[C@@H](C#N)NC(=O)[C@@H]4CNCCCO4)cc3)cc21 [Compound A18, (2S)—N-[(1S)-1-cyano-2-[4-(5-methyl-6-oxo-1,5-naphthyridin-3-yl)phenyl]ethyl]-1,4-oxazepane-2-carboxamide] |  |  | < 8.60 | < 7.82 |
